Experimental data published in patent publication US11478474B2, “2-(3′-(hydroxymethyl)-1-methyl-5-((5-(2-methyl-4-(oxetan-3-yl)piperazin-1-yl)pyridin-2-yl)amino)-6-oxo-1,6-dihydro-[3,4′-bipyridin]-2′-yl)-7,7-dimethyl-7,8-dihydro-2H-cyclopenta[4,5]pyrrolo[1,2-a]pyrazin-1(6H)-one as a BTK inhibitor” (HUTCHISON MEDIPHARMA LIMITED, priority 2020, dated 2022).
pIC50: −log10 of the molar value.

Legend:
[1] = biological target: phosphorylated BTK in Ramos cells (Homo sapiens (Human), UniProt Q06187); assay: Determination of phosphorylated BTK in Ramos cells (BTK phospho-Y223 HTRF); type: cell-based; conditions: anti-human IgM + hydrogen peroxide stimulation
Sequence of phosphorylated BTK in Ramos cells (Q06187 whole entry): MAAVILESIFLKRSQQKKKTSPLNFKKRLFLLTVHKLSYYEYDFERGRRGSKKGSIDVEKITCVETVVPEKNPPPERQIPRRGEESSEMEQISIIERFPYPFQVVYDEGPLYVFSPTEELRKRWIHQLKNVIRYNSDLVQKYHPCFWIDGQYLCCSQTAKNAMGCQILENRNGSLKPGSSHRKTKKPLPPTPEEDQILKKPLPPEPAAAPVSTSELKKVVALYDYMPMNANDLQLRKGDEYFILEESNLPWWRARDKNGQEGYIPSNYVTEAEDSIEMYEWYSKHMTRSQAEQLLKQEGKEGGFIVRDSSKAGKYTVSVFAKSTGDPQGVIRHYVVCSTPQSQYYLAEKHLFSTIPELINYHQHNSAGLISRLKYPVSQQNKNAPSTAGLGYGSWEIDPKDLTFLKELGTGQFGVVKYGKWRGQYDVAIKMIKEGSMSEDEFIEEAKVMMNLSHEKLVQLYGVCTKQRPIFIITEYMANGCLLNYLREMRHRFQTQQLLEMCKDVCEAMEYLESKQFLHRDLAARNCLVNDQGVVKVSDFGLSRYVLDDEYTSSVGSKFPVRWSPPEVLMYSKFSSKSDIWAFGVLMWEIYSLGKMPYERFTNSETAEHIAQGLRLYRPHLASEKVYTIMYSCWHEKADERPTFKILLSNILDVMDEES
In short: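 Ramos cells starved 2 h in 1% FBS, then treated 1 h with compound (0.00018–3.0 μM, 0.3% DMSO). They were then stimulated 10 min at 37° C. with anti-human IgM (10 μg/mL) plus H2O2 (3.3 mM). Lysates read by BTK phospho-Y223 HTRF (665/615 nm ratio); IC50 fitted from inhibition normalized to stimulated and unstimulated controls.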

BTK recombinant protein = BTK recombinant protein (Homo sapiens (Human), UniProt Q06187); assay: Determination of biochemical BTK (Z'-LYTE kinase assay)
Sequence of BTK recombinant protein (Q06187 whole entry): as above
In short: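 Human BTK recombinant kinase (3.32 nM final) was preincubated with compound for 30 min at 4 °C. Reaction ran 1 h at room temperature with Tyr01 FRET peptide (2 μM) and ATP (32 μM); development protease then added. Coumarin 445 nm/fluorescein 520 nm emission ratio (400 nm excitation) gave inhibition across 8 concentrations, 3000–1.37 nM.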

SMILES	pIC50 [1]	pIC50 (BTK recombinant protein)
Cc1cc(Nc2cc(-c3ccnc(-n4ncn5c6c(cc5c4=O)CC(C)(C)C6)c3CO)cn(C)c2=O)no1 [Compound 192]	7.80	8.05
C[C@@H]1CN(c2ccc(Nc3cc(-c4ccnc(-n5ncn6c7c(cc6c5=O)CC(C)(C)C7)c4CO)cn(C)c3=O)nc2)[C@@H](C)CN1C1COC1 [Compound 193]	8.22	7.92
C[C@H]1CN(C2COC2)CCN1c1ccc(Nc2cc(-c3ccnc(-n4ccn5c6c(cc5c4=O)CC(C)(C)[C@@H]6O)c3CO)cn(C)c2=O)nc1 [Compound 198]	7.92	8.40
Cn1cc(-c2ccnc(-n3ccn4c5c(cc4c3=O)CC(C)(C)C5)c2CO)cc(Nc2ccc(C3CCN(C4COC4)CC3)nn2)c1=O [Compound 200]	7.68	8.40
CCn1cc(-c2ccnc(-n3ccn4c5c(cc4c3=O)CC(C)(C)C5)c2CO)cc(Nc2ccc(N3CCN(C4COC4)C[C@@H]3C)cn2)c1=O [Compound 202]	7.77	8.10
C[C@H]1COCCN1c1ccc(Nc2cc(-c3ccnc(-n4ccn5c6c(cc5c4=O)CC(C)(C)C6)c3CO)cn(C)c2=O)nn1 [Compound 203]	8.15	> 9.00
C[C@H]1CN(C2COC2)CCN1c1ccc(Nc2cc(-c3ccnc(-n4ccn5c6c(cc5c4=O)CC(C)(C)C6)c3CO)cn(C)c2=O)nn1 [Compound 204]	8.15	7.96
COCCN1C[C@H](C)N(c2ccc(Nc3cc(-c4ccnc(-n5ncn6c7c(cc6c5=O)CC(C)(C)C7)c4CO)cn(C)c3=O)nc2)C[C@H]1C [Compound 207]	8.10	7.96
C[C@@H]1CN(c2ccc(Nc3cc(-c4ccnc(-n5ncn6c7c(cc6c5=O)CC(C)(C)C7)c4CO)cn(C)c3=O)nn2)[C@@H](C)CN1C1COC1 [Compound 209]	8.30	7.96
CCn1cc(-c2ccnc(-n3ncn4c5c(cc4c3=O)CC(C)(C)C5)c2CO)cc(Nc2ccc(N3CCN(C4COC4)C[C@@H]3C)cn2)c1=O [Compound 211]	7.70	7.77
C[C@H]1COCCN1c1ccc(Nc2cc(-c3ccnc(-n4ncn5c6c(cc5c4=O)CC(C)(C)C6)c3CO)cn(C)c2=O)nn1 [Compound 212]	7.96	8.00

Continued, values first:

pIC50 [1]	pIC50 (BTK recombinant protein)	SMILES
7.40	7.54	C[C@H]1CN(C2COC2)CCN1c1ccc(Nc2cc(-c3ccnc(-n4cnn5c6c(c(F)c5c4=O)CCCC6)c3CO)cn(C)c2=O)nc1 [Compound 190]
8.00	7.96	Cn1cc(-c2ccnc(-n3ncn4c5c(cc4c3=O)CC(C)(C)C5)c2CO)cc(Nc2ccc(N3CCN(C4COC4)CC3(C)C)cn2)c1=O [Compound 191]
8.15	8.70	C[C@H]1COCCN1c1ccc(Nc2cc(-c3ccnc(-n4ncn5c6c(cc5c4=O)CC(C)(C)C6)c3CO)cn(C)c2=O)nc1 [Compound 196]
7.60	8.10	C[C@H]1CN(C2COC2)CCN1c1ccc(Nc2cc(-c3ccnc(-n4ccn5c6c(cc5c4=O)CC(C)(C)[C@H]6O)c3CO)cn(C)c2=O)nc1 [Compound 199]
7.82	7.82	C[C@@H]1CN(c2ccc(Nc3cc(-c4ccnc(-n5ccn6c7c(cc6c5=O)CC(C)(C)C7)c4CO)cn(C)c3=O)nn2)[C@@H](C)CN1C1COC1 [Compound 205]
8.15	7.89	COCCN1CCN(c2ccc(Nc3cc(-c4ccnc(-n5ncn6c7c(cc6c5=O)CC(C)(C)C7)c4CO)cn(C)c3=O)nc2)[C@@H](C)C1 [Compound 206]
8.40	8.40	CCn1cc(Nc2cc(-c3ccnc(-n4ncn5c6c(cc5c4=O)CC(C)(C)C6)c3CO)cn3ncnc23)nn1 [Compound 208]
7.72	7.68	CCn1cc(-c2ccnc(-n3ncn4c5c(cc4c3=O)CC(C)(C)C5)c2CO)cc(Nc2ccc(N3C[C@@H](C)N(C4COC4)C[C@@H]3C)cn2)c1=O [Compound 210]
7.82	7.82	C[C@H]1CN(C2COC2)CCN1c1ccc(Nc2cc(-c3ccnc(-n4ncn5c6c(cc5c4=O)CC(C)(C)C6)c3CO)cn(C)c2=O)nn1 [Compound 213]
